According to patent publication US20110288154A1, “RNA Interference Mediated Inhibition of Epithelial Sodium Channel (ENaC) Gene Expression Using Short Interfering Nucleic Acid (siNA)” (MERCK & CO., INC., priority 2008, published 2011):
[invAb] = inverted abasic unit; d = 2'-deoxy (DNA); m = 2'-O-methyl; r = 2'-OH (RNA); f = 2'-fluoro

Columns and labels:
mSCNN1A mRNA = experiment: Screening of ENaCα siNAs in mouse NIH 3T3 cells (quantitative RT-PCR); type: cell-based; parameters: Percent Reduction of the mSCNN1A mRNA relative to a non-targeting control siNA / Mouse % KD (efficacy of ENaCα mRNA knockdown): concentration or dose not given beside the values; settings: mouse NIH 3T3 cells, n = 3; for Mean (mSCNN1A expression normalized to the level of m36B4) / Percent Reduction of the mSCNN1A mRNA relative to a non-targeting control siNA / Avg 36B4 Expression: 24 hours post-transfection; for Avg ENaCα Expression (mSCNN1A): harvested 24 hours post-transfection; for Avg 36B4 Expression: housekeeping gene used for normalisation
Protocol: siNA constructs (Table 1b) may be tested for efficacy in reducing ENaC RNA expression in, for example, A549 human lung carcinoma cells. A549 (human; ATCC cat# CCL-185) cells were cultured at 37° C. in the presence of 5% CO2 and grown in Ham's F12K medium with 2 mM L-glutamine adjusted to contain 1.5 g/L sodium bicarbonate and supplemented with fetal bovine serum at a final concentration of 10% and 100 U/mL penicillin. The A549 cells were plated approximately 24 hours before transfection in 96-well plates at 7,500 cells/well, 100 μl/well. After 24 hours complexes containing siNA and Lipofectamine 2000 (Invitrogen) were created as follows: a solution of Lipofectamine 2000 in OPTI-MEM was prepared containing Lipofectamine 2000 at a final concentration of 14 μg/ml. In parallel, solutions of the siNAs were prepared in OPTI-MEM at a final concentration of 150 nM. After both solutions were incubated at 20° C. for 20 minutes an equal volume of the siNA solutions and the Lipofectamine 2000 solution were added together for each of the siNAs. The resultant solution has the siNAs at a final concentration of 75 nM and Lipofectamine 2000 at a final concentration of 7 μg/ml. This solution was incubated at 20° C. for 20 minutes. After incubation 50 μl of the solution were added to each of the wells (in triplicate). The final concentration of siNA in each well was 25 nM and the final concentration of Lipofectamine 2000 in each well was 2.33 μg/ml. The plates were incubated for 48 hours with no change of media before harvesting. Dose response curves were determined in a similar manner with each concentration being done in triplicate and maintaining a constant amount of Lipofectamine 2000 in each transfection.
(§1) A series of probes and primers were used to detect the various mRNA transcripts of the genes of ENaCa and GAPDH in mouse, rat, and human cell lines. The assays were performed on an ABI 7500 instrument, according to the manufacturer's instructions. Within each experiment, the baseline was set in the exponential phase of the amplification curve, and based on the intersection point of the baselines with the amplification curve, a Ct value was assigned by the instrument. This Ct value was then assigned a QTY value based on the Standard Curve. The standard curve in the various experiments herein used 1 ng to 300 ng of RNA extracted from the same cell line used for the experimental transfections.
(§2) All IC50 values were calculated from the data using GraphPad Prizm software, specifically a sigmoidal, variable slope curve for simple ligand binding. Also, unless otherwise indicated, all calculations of the efficacy and potency (e.g., % knockdown) of the siNAs were done relative to a non-targeting control siNA. If reported, P-values were computed using The Students t-test, including the Welch Correction for unequal variances.
(§3) In all of the calculations of the % knock-down of mRNA, the calculation was made relative to the normalized level of expression of the gene of interest in the samples treated with the non-targeting control (NTC) unless otherwise indicated. The gene of interest expression level was divided by the level of expression of GAPDH or 36B4 (depending on the species) in each sample. The three replicates for each condition in each experiment were averaged and the standard deviation of those samples was calculated. The following formula was then used to calculate the % of knock-down of the gene of interest:
(§4) The ENaCα siNAs were designed and synthesized as described previously. The siNAs were screened in three cell lines. Human A549 cells, mouse NIH 3T3 and Rat H-4-II-E cells. The data from the screen of ENaCa siNAs in all three species is shown in Tables 3a, 3b, 4a, 4b, 5a, and 5b and a summary of the data for certain siNA molecules is presented in Table 6. Each screen was performed at 24 hrs. The decision to use this time point was based upon the degree of knockdown of the mRNA seen at that time point.

rSCNN1A (r ENaCα) mRNA = experiment: Screening of ENaCα siNAs in Rat H-4-II-E cells (quantitative RT-PCR); type: cell-based; parameters: Percent Reduction of the r ENaCα mRNA relative to a non-targeting control siNA (NTCs) / Rat % KD (efficacy of ENaCα mRNA knockdown): concentration or dose not given beside the values; settings: Rat H-4-II-E cells, n = 3; for Mean (rSCNN1A expression normalized to the level of rGAPDH) / Percent Reduction of the r ENaCα mRNA relative to a non-targeting control siNA (NTCs) / Avg GAPDH Expression (rGAPDH): 24 hours post-transfection; for Avg ENaCα Expression (rSCNN1A): harvested 24 hours post-transfection; for Avg GAPDH Expression (rGAPDH): housekeeping gene used for normalisation
Protocol: as §1, §2, §3, §4

Row | Substance | Mean (mSCNN1A expression normalized to the level of m36B4) (mSCNN1A mRNA) | Percent Reduction of the mSCNN1A mRNA relative to a non-targeting control siNA (mSCNN1A mRNA) | Avg ENaCα Expression (mSCNN1A) (mSCNN1A mRNA) | Avg 36B4 Expression (mSCNN1A mRNA) | Mean (rSCNN1A expression normalized to the level of rGAPDH) (rSCNN1A (r ENaCα) mRNA) | Percent Reduction of the r ENaCα mRNA relative to a non-targeting control siNA (NTCs) (rSCNN1A (r ENaCα) mRNA) | Avg ENaCα Expression (rSCNN1A) (rSCNN1A (r ENaCα) mRNA) | Avg GAPDH Expression (rGAPDH) (rSCNN1A (r ENaCα) mRNA)
1 | B AAccGCAuGAAGAcGGccu TTB / AGGccGucuucAuGcGGuuUU (chain 1 AACCGCAUGAAGACGGCCUTT; chain 2 AGGCCGUCUUCAUGCGGUUUU; siRNA; chain 1: sugars from the 5' end ddffdddfdddddfddfffdd, [invAb] at 5' end, 3' end, backbone not given here; chain 2: sugars from the 5' end rrrffmfffffmfmfmmffmm, backbone not given here) [Site 337] | 0.24 | 0.8% | 3.42 | 14.44 | 0.96 | 25.4% | 16.40 | 17.17
2 | B AAccuGGGcAGccAGuGGA TTB / UCCAcuGGcuGcccAGGuuUU (sense AACCUGGGCAGCCAGUGGATT; antisense UCCACUGGCUGCCCAGGUUUU; siRNA; sense: sugars from the 5' end ddfffdddfddffddfddrdd, [invAb] at 5' end, 3' end, backbone not given here; antisense: sugars from the 5' end rrrmffmmffmfffmmmffmm, backbone not given here) [Site 1747] | 0.15 | −6.1% | 3.67 | 25.19 | 0.56 | 39.5% | 23.39 | 41.88
3 | B AGccAGuGGAGccuGuGGu TTB / ACCAcAGGcuccAcuGGcuUU (sense AGCCAGUGGAGCCUGUGGUTT; antisense ACCACAGGCUCCACUGGCUUU; siRNA; sense: DNA at AGT, 2'-fluoro at CU, [invAb] at 5' end, 3' end, backbone not given here; antisense: sugars from the 5' end rrrmfmmmffffmffmmffmm, backbone not given here) [Site 1756] | 0.12 | 13.5% | 2.58 | 21.66 | 0.57 | 38.3% | 23.08 | 40.27
4 | B AGuGuGGcuGuGccuAcAu TTB / AUGuAGGcAcAGccAcAcuUU (sense AGUGUGGCUGUGCCUACAUTT; antisense AUGUAGGCACAGCCACACUUU; siRNA; sense: DNA at AGT, 2'-fluoro at CU, [invAb] at 5' end, 3' end, backbone not given here; antisense: sugars from the 5' end rrrfmmmfmfmmffmfmffmm, backbone not given here) [Site 1382] | 0.21 | 10.7% | 2.94 | 13.77 | 0.84 | 34.5% | 22.02 | 26.11
5 | B AccGcAuGAAGAcGGccuu TTB / AAGGccGucuucAuGcGGuUU (chain 1 ACCGCAUGAAGACGGCCUUTT; chain 2 AAGGCCGUCUUCAUGCGGUUU; siRNA; chain 1: DNA at AGT, 2'-fluoro at CU, [invAb] at 5' end, 3' end, backbone not given here; chain 2: sugars from the 5' end rrrmffmfffffmfmfmmfmm, backbone not given here) [Site 338] | 0.26 | −9.5% | 3.24 | 12.29 | 0.79 | 38.7% | 14.22 | 18.42
6 | B AccuGGGcAGccAGuGGAG TTB / CUCcAcuGGcuGcccAGGuUU (sense ACCUGGGCAGCCAGUGGAGTT; antisense CUCCACUGGCUGCCCAGGUUU; siRNA; sense: DNA at AGT, 2'-fluoro at CU, [invAb] at 5' end, 3' end, backbone not given here; antisense: sugars from the 5' end rrrfmffmmffmfffmmmfmm, backbone not given here) [Site 1748] | 0.15 | −12.7% | 4.06 | 26.15 | 0.60 | 34.7% | 26.11 | 43.45
7 | B GGGcAGccAGuGGAGccuG TTB / CAGGcuccAcuGGcuGcccUU (sense GGGCAGCCAGUGGAGCCUGTT; antisense CAGGCUCCACUGGCUGCCCUU; siRNA; sense: DNA at AGT, 2'-fluoro at CU, [invAb] at 5' end, 3' end, backbone not given here; antisense: sugars from the 5' end rrrmffffmffmmffmfffmm, backbone not given here) [Site 1752] | 0.11 | 19.8% | 3.21 | 29.27 | 0.44 | 52.1% | 19.23 | 43.83
8 | B GGcAGccAGuGGAGccuGu TTB / ACAGGcuccAcuGGcuGccUU (sense GGCAGCCAGUGGAGCCUGUTT; antisense ACAGGCUCCACUGGCUGCCUU; siRNA; sense: DNA at AGT, 2'-fluoro at CU, [invAb] at 5' end, 3' end, backbone not given here; antisense: sugars from the 5' end rrrmmffffmffmmffmffmm, backbone not given here) [Site 1753] | 0.12 | 9.6% | 3.13 | 25.27 | 0.59 | 35.4% | 24.59 | 41.36
